Measurements as given in ChEMBL document CHEMBL1201862, “PubChem BioAssay data set” (2004).
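Five compound concentrations were applied to cells in 96-well plates for 48 hours; endpoints were derived by simple linear interpolation of the resulting dose-response curve. The concentration for 50% growth inhibition is given as GI50.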 Activity calls are given as the source filed them. Rule as the data show it: active = GI50 up to about 1.1 µM and inactive = higher.

Columns and labels:
Assay in all cases: growth of human tumour cells (NCI), 48 h
[1] = test system: CAKI-1
[2] = test system: HOP-92
[3] = test system: PC-3
[4] = test system: HL-60
[5] = test system: OVCAR-8
[6] = test system: A549
[7] = test system: MCF7
[8] = test system: HCT-116
[9] = test system: Hs-578T
[10] = test system: SR
[11] = test system: OVCAR-5
[12] = test system: T47D
[13] = test system: RPMI-8226
[14] = test system: UACC-62
[15] = test system: NCI-H23
[16] = test system: CCRF-CEM
[17] = test system: LOX IMVI
[18] = test system: U-251
[19] = test system: NCI-H460
[20] = test system: M14
[21] = test system: MDA-MB-231
[22] = test system: TK-10
[23] = test system: RXF 393
[24] = test system: EKVX
[25] = test system: MDA-MB-435
[26] = test system: KM12
[27] = test system: OVCAR-3
[28] = test system: UACC-257
[29] = test system: K562
[30] = test system: HCT-15
[31] = test system: SNB-75
[32] = test system: SK-MEL-28
[33] = test system: SN12C
[34] = test system: MDA-N
[35] = test system: DU-145
[36] = test system: BT-549
[37] = test system: SK-MEL-2
[38] = test system: SF-295
[39] = test system: SW-620
[40] = test system: HCC 2998
[41] = test system: UO-31
[42] = test system: NCI-H522
[43] = test system: NCI/ADR-RES
[44] = test system: SNB-19
[45] = test system: ACHN
[46] = test system: SF-539
[47] = test system: IGROV-1
[48] = test system: HT-29
[49] = test system: SF-268
[50] = test system: COLO 205
[51] = test system: 786-0
[52] = test system: SK-MEL-5
[53] = test system: MOLT-4
[54] = test system: SK-OV-3
[55] = test system: A498
[56] = test system: HOP-62
[57] = test system: NCI-H226
[58] = test system: OVCAR-4
[59] = test system: Malme-3M

O=C(O)Cc1cc(F)ccc1C(=O)O
GI50 [1]: 31 µM (inactive)
GI50 [2]: > 100 µM (inactive)
GI50 [3]: > 100 µM (inactive)
GI50 [4]: > 100 µM (inactive)
GI50 [5]: > 100 µM (inactive)
GI50 [6]: > 100 µM (inactive)
GI50 [7]: > 100 µM (inactive)
GI50 [8]: > 100 µM (inactive)
GI50 [9]: > 100 µM (inactive)
GI50 [10]: 77.1 µM (inactive)
GI50 [11]: > 100 µM (inactive)
GI50 [12]: > 100 µM (inactive)
GI50 [13]: > 100 µM (inactive)
GI50 [14]: > 100 µM (inactive)
GI50 [15]: > 100 µM (inactive)
GI50 [16]: > 100 µM (inactive)
GI50 [17]: > 100 µM (inactive)
GI50 [18]: > 100 µM (inactive)
GI50 [19]: > 100 µM (inactive)
GI50 [20]: > 100 µM (inactive)
GI50 [21]: > 100 µM (inactive)
GI50 [22]: > 100 µM (inactive)
GI50 [23]: 58.5 µM (inactive)
GI50 [24]: > 100 µM (inactive)
GI50 [25]: > 100 µM (inactive)
GI50 [26]: > 100 µM (inactive)
GI50 [27]: > 100 µM (inactive)
GI50 [28]: > 100 µM (inactive)
GI50 [29]: > 100 µM (inactive)
GI50 [30]: 73.5 µM
GI50 [31]: 80.4 µM (inactive)
GI50 [32]: 60.3 µM (inactive)
GI50 [33]: > 100 µM (inactive)
GI50 [34]: > 100 µM (inactive)
GI50 [35]: > 100 µM (inactive)
GI50 [36]: > 100 µM (inactive)
GI50 [37]: > 100 µM (inactive)
GI50 [38]: > 100 µM (inactive)
GI50 [39]: > 100 µM (inactive)
GI50 [40]: > 100 µM (inactive)
GI50 [41]: > 100 µM (inactive)
GI50 [42]: 92 µM (inactive)
GI50 [43]: > 100 µM (inactive)
GI50 [44]: > 100 µM (inactive)
GI50 [45]: > 100 µM (inactive)
GI50 [46]: > 100 µM (inactive)
GI50 [47]: 23.6 µM (inactive)
GI50 [48]: > 100 µM (inactive)
GI50 [49]: > 100 µM (inactive)
GI50 [50]: > 100 µM (inactive)
GI50 [51]: > 100 µM (inactive)
GI50 [52]: > 100 µM (inactive)
GI50 [53]: > 100 µM (inactive)
GI50 [54]: > 100 µM (inactive)
GI50 [55]: > 100 µM (inactive)
GI50 [56]: > 100 µM (inactive)

COc1ccc2c(c1)CCc1cc(C(N)=O)c3nnnn3c1-2
GI50 [1]: 36.7 µM (inactive)
GI50 [2]: 30.9 µM (inactive)
GI50 [3]: > 57.9 µM (inactive)
GI50 [4]: > 100 µM (inactive)
GI50 [5]: > 52.7 µM (inactive)
GI50 [6]: > 100 µM (inactive)
GI50 [7]: > 100 µM (inactive)
GI50 [8]: 67.1 µM (inactive)
GI50 [9]: 0.408 µM (active)
GI50 [10]: > 100 µM (inactive)
GI50 [11]: > 100 µM (inactive)
GI50 [12]: 25.2 µM (inactive)
GI50 [13]: > 100 µM (inactive)
GI50 [14]: 1.67 µM (inactive)
GI50 [15]: 60.1 µM (inactive)
GI50 [16]: > 50.1 µM (inactive)
GI50 [17]: > 58.1 µM (inactive)
GI50 [18]: 23.6 µM (inactive)
GI50 [19]: 12.2 µM (inactive)
GI50 [20]: > 100 µM (inactive)
GI50 [21]: > 49.2 µM (inactive)
GI50 [22]: 8.13 µM (inactive)
GI50 [57]: > 100 µM (inactive)
GI50 [23]: 16.9 µM (inactive)
GI50 [24]: < 0.0224 µM (active)
GI50 [25]: > 100 µM (inactive)
GI50 [26]: > 100 µM (inactive)
GI50 [27]: > 54.3 µM (inactive)
GI50 [28]: 85.5 µM (inactive)
GI50 [29]: > 96.6 µM (inactive)
GI50 [30]: > 100 µM
GI50 [32]: > 100 µM (inactive)
GI50 [33]: 99.8 µM (inactive)
GI50 [34]: > 100 µM (inactive)
GI50 [35]: 23.7 µM (inactive)
GI50 [58]: > 81.3 µM (inactive)
GI50 [36]: 35.5 µM (inactive)
GI50 [37]: > 42.1 µM (inactive)
GI50 [38]: 44.1 µM (inactive)
GI50 [39]: > 100 µM (inactive)
GI50 [40]: 39.8 µM (inactive)
GI50 [42]: 27.9 µM (inactive)
GI50 [43]: > 84.5 µM (inactive)
GI50 [44]: 64.7 µM (inactive)
GI50 [45]: 30.5 µM (inactive)
GI50 [46]: 78.7 µM (inactive)
GI50 [47]: 39.3 µM (inactive)
GI50 [48]: > 100 µM (inactive)
GI50 [49]: 2.98 µM (inactive)
GI50 [50]: > 100 µM (inactive)
GI50 [59]: 18.2 µM (inactive)
GI50 [51]: 33.6 µM (inactive)
GI50 [52]: > 100 µM (inactive)
GI50 [53]: > 38.8 µM (inactive)
GI50 [54]: 54.3 µM (inactive)
GI50 [55]: 18.2 µM (inactive)
GI50 [56]: 25.5 µM (inactive)

C/C(=N\O)c1cccc(Nc2nc3ccccc3c3occc23)c1
GI50 [1]: 10.7 µM (inactive)
GI50 [2]: 5.3 µM (inactive)
GI50 [3]: 12.1 µM (inactive)
GI50 [4]: 20.9 µM (inactive)
GI50 [5]: 16.6 µM (inactive)
GI50 [6]: 7.33 µM (inactive)
GI50 [7]: 15 µM (inactive)
GI50 [8]: 12.3 µM (inactive)
GI50 [9]: 12.1 µM (inactive)
GI50 [10]: 5.81 µM (inactive)
GI50 [11]: 14.9 µM (inactive)
GI50 [12]: 7.73 µM (inactive)
GI50 [13]: 7.06 µM (inactive)
GI50 [14]: < 0.01 µM (active)
GI50 [16]: 8.02 µM (inactive)
GI50 [17]: 13.6 µM (inactive)
GI50 [18]: 19.4 µM (inactive)
GI50 [19]: 4.35 µM (inactive)
GI50 [20]: 12.7 µM (inactive)
GI50 [21]: 11.9 µM (inactive)
GI50 [22]: 13 µM (inactive)
GI50 [57]: 1.72 µM (inactive)
GI50 [23]: 5.19 µM (inactive)
GI50 [24]: 12.7 µM (inactive)
GI50 [25]: 10.1 µM (inactive)
GI50 [26]: 10 µM (inactive)
GI50 [27]: 13.7 µM (inactive)
GI50 [28]: < 0.01 µM (active)
GI50 [29]: 7.85 µM (inactive)
GI50 [30]: 7.94 µM
GI50 [31]: 16.2 µM (inactive)
GI50 [32]: 14.3 µM (inactive)
GI50 [33]: 15.5 µM (inactive)
GI50 [34]: 13.1 µM (inactive)
GI50 [35]: 13.2 µM (inactive)
GI50 [58]: 12.4 µM (inactive)
GI50 [36]: 13.1 µM (inactive)
GI50 [38]: 8.83 µM (inactive)
GI50 [40]: 14.6 µM (inactive)
GI50 [41]: 0.0303 µM (active)
GI50 [43]: 13.1 µM (inactive)
GI50 [44]: 16.9 µM (inactive)
GI50 [45]: 10.3 µM (inactive)
GI50 [46]: 15.5 µM (inactive)
GI50 [48]: 4.32 µM (inactive)
GI50 [49]: 11.9 µM (inactive)
GI50 [50]: 12.9 µM (inactive)
GI50 [59]: 14.4 µM (inactive)
GI50 [51]: 12.7 µM (inactive)
GI50 [52]: 13.6 µM (inactive)
GI50 [53]: 5.96 µM (inactive)
GI50 [54]: 15 µM (inactive)
GI50 [55]: 14.8 µM (inactive)
GI50 [56]: 18.3 µM (inactive)
